Activity calls are given as the source filed them. The calls are words filed in the database; no cut-off is given here.
Columns and labels:
HeLa = experiment: Cytotoxicity against human HeLa cells assessed as reduction in cell viability at 50 uM incubated for 72 hrs by MTT assay; assay type: functional, cell-based
Androgen receptor = target: T1, Androgen receptor (Homo sapiens, UniProt P10275); experiment: Inhibition of AR transcriptional activity in human LNCaP cells harboring ARR2PB-eGFP incubated for 72 hrs by fluorescence assay; assay type: cell-based
T1 sequence (P10275 whole entry): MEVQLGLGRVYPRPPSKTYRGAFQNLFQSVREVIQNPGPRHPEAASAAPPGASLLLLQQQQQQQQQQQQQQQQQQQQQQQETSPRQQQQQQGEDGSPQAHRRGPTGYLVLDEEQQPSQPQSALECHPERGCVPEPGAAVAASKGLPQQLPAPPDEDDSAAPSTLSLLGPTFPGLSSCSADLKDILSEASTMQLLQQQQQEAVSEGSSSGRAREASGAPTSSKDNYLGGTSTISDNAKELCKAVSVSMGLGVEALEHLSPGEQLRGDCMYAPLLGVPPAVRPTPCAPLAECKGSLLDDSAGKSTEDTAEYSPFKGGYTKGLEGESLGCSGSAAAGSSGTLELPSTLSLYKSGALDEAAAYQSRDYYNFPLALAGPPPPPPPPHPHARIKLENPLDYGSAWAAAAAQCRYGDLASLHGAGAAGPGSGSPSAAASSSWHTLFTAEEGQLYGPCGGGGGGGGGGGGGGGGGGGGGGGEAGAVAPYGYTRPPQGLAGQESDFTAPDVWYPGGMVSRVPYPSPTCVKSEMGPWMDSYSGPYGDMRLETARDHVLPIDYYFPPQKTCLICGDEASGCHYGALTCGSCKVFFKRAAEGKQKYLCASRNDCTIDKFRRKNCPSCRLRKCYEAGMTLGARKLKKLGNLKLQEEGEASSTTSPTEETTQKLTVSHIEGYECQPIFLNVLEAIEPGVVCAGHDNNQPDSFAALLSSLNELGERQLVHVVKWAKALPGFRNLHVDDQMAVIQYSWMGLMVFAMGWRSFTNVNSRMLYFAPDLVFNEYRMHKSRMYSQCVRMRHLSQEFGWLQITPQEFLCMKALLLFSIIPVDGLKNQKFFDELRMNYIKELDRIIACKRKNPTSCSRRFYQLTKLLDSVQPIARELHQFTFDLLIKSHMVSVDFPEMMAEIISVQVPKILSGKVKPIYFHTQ

[1] = target: T2, Androgen receptor (Homo sapiens) (UniProt P10275); experiment: Antagonist activity at androgen receptor in human LNCaP cells assessed as reduction in DHT-induced TMPRSS2 mRNA expression after 48 hrs by SYBR green dye based qPCR analysis; assay type: cell-based; conditions: filed as antagonist, dose 0.1-10 µM
T2 sequence (whole entry): T1 sequence (P10275 whole entry)

MCF7 = experiment: Cytotoxicity against human MCF7 cells assessed as reduction in cell viability at low concentration incubated for 72 hrs by MTT assay; assay type: functional, cell-based
HepG2 = experiment: Cytotoxicity against human HepG2 cells assessed as reduction in cell viability at low concentration incubated for 72 hrs by MTT assay; assay type: functional, cell-based
[2] = target: T2, Androgen receptor (Homo sapiens); experiment: Antagonist activity at androgen receptor in human LNCaP cells assessed as reduction in DHT-induced endogenous PSA level at 0.1 to 10 uM after 48 hrs by Western blot analysis; assay type: cell-based; conditions: filed as antagonist, dose 0.1-10 µM
A549 = experiment: Cytotoxicity against human A549 cells assessed as reduction in cell viability at 50 uM incubated for 72 hrs by MTT assay; assay type: functional, cell-based
[3] = Cytotoxicity against human chang cells assessed as reduction in cell viability at 50 uM incubated for 72 hrs by MTT assay; assay type: cell-based; conditions: chang liver
[4] = target: T2, Androgen receptor (Homo sapiens); experiment: Antagonist activity at androgen receptor in human LNCaP cells assessed as reduction in DHT-induced PSA mRNA expression after 48 hrs by SYBR green dye based qPCR analysis; assay type: cell-based; conditions: filed as antagonist, dose 0.1-10 µM
LNCaP C4-2 = experiment: Cytotoxicity against human C4-2 cells assessed as reduction in cell viability incubated for 72 hrs by MTT assay; assay type: functional, cell-based
Glucocorticoid receptor = target: T3, Glucocorticoid receptor (Homo sapiens, UniProt P04150); experiment: Antagonist activity at glucocorticoid receptor in human HeLa cells assessed as reduction in dexamethasone-induced luciferase activity by dual-Glo luciferase assay; assay type: cell-based
T3 sequence (P04150 whole entry): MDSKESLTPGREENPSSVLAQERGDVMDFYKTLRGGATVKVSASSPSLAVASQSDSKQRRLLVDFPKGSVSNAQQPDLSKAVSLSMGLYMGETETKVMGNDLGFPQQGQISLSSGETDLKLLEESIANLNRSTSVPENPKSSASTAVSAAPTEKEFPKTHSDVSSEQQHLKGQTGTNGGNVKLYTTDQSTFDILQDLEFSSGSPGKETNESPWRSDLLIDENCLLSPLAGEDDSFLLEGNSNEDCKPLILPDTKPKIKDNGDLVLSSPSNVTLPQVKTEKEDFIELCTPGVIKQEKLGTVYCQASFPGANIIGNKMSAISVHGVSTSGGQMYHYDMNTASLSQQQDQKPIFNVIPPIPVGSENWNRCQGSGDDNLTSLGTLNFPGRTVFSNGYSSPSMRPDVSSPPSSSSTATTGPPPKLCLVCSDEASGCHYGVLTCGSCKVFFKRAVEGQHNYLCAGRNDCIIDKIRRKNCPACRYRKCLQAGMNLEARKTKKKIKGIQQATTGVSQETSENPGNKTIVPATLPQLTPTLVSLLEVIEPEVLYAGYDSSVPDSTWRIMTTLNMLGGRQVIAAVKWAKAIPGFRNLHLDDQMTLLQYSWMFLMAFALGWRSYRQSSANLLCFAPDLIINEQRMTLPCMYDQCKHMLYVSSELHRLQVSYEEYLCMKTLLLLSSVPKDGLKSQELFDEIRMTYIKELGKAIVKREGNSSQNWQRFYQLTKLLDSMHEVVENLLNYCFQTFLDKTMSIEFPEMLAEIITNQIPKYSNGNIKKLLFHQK

IC50 (Androgen receptor): 170 nM
Activity [1]: Dose-dependent effect
Activity [2]: Active
Activity [4]: Dose-dependent effect
IC50 (Glucocorticoid receptor): > 10000 nM
SMILES: O=c1cc(C(F)(F)F)c2ccc(OCc3ccc(Br)cc3)cc2o1
Activity (HeLa): Active
Activity (MCF7): inactive
Activity (HepG2): inactive
Activity (A549): Active
Activity [3]: Non-Toxic
Activity (LNCaP C4-2): Active

— ChEMBL document CHEMBL5055679, “Discovery of a Novel Androgen Receptor Antagonist Manifesting Evidence to Disrupt the Dimerization of the Ligand-Binding Domain via Attenuating the Hydrogen-Bonding Network Between the Two Monomers” (J Med Chem, 2021)
